Here are results for 19 compounds from patent publication US20240208998A1, “COMPOUNDS FOR USE IN THE TREATMENT OF HYPERPROLIFERATIVE DISORDERS” (FUNDACIÓ PRIVADA INSTITUT D'INVESTIGACIÓ ONCOLÓGICA DE VALL …, priority 2021, published 2024).

One series has as its target human TET2 construct (Homo sapiens, UniProt Q6N021, A1837G/A1840G/D1704G/D1842G/DEL1471-1702/DEL1708-1833/E1841G/F1706G/N1843S/Q1834G/V1836G). The experiment in a line: Determination of TET2 binding by Surface Plasmon Resonance. The conditions noted are these: SPR, Biacore T200, 25° C., steady state fit to single site interaction model. How it is done: The human methylcytosine dioxygenase TET2 construct used (1129-2002 with residues 1471-1843 replaced by a 15-residue GS-linker) was expressed in a pET-28a(+)psumo vector with kanamycin resistance and an N-terminal His6 tag, and cloned in Rosetta D3 Escherichia coli competent cells. Transformed cells were cultured overnight in 10 mL of LB media supplied with kanamycin (50 μg/mL), then scaled to 1 L LB medium supplied with kanamycin (50 μg/mL) and grown at 37° C. Once the optical density (OD600) achieved 0.8, protein expression was induced with 0.4 mM isopropyl-β-thiogalactopyranoside (IPTG) overnight at 18° C. Cells were harvested by centrifugation (8,000 rpm, 4° C., 30 min) and the pellet obtained was resuspended in 15 mL of buffer A (50 mM Hepes, 150 mM NaCl, 30 mM imidazole, 2 mM β-mercaptoethanol (pH 8.0) supplemented with Pierce protease inhibitor cocktail (ThermoFisher Scientific)) and lysed by sonication (1 min 40 s: 10 cycles×10 s ON, 30 s OFF, A=35%, T=19° C.) followed by two consecutive centrifugations (8,000 rpm, 4° C., 30 min) to clarify the lysate.
The TET2 protein was purified using an AKTA Start system (GE Healthcare, Uppsala, Sweden) by two-step purification procedure: one His-affinity chromatography followed by a size exclusion chromatography. First, the protein fraction obtained during the lysis (supernatant) was applied to a 5 mL HisTrap HP column (GE Healthcare), washed with buffer A (50 mM Hepes, 150 mM NaCl, 30 mM imidazole, 2 mM […] (pH 8.0)) and the bound protein was eluted with buffer B (50 mM Hepes, 150 mM NaCl, 250 mM imidazole, 2 mM β-mercaptoethanol (pH 8.0)). The eluted protein-containing fractions were pooled and concentrated up to 4 mL for the last purification step: a size exclusion chromatography (HiPrep 16/60 Sephacryl S-100 HR) in 50 mM Hepes, 150 mM NaCl, 2 mM β-mercaptoethanol (pH 8.0). Finally, the mass and purity of the protein were verified by SDS-electrophoresis and mass spectrometry.
The binding of compounds of the examples was determined by Surface Plasmon Resonance (SPR) using a Biacore T200 SPR biosensor instrument (GE Healthcare, Uppsala, Sweden) at 25° C. The human TET2 construct was immobilized on a CM5 sensor chip using a standard covalent immobilization via amine coupling following the activation of the carboxymethyl dextran matrix of the sensor chip (injection of a solution containing 0.1 M N-hydroxysuccinimide and 0.4 M 1-ethyl-3-[3-(dimethylamino)propyl]carbodiimide hydrochloride at a flow rate of 15 μL/min for 7 min). The protein immobilization was achieved after the injection of 5 μg/mL TET2 in 10 mM sodium acetate (pH 4.0) at a flow rate of 5 μL/min. Unreacted activated groups of the dextran matrix were deactivated by injection of 1 M ethanolamine hydrochloride for 7 min at a flow rate of 15 μL/min. The corresponding matrix activation and protein immobilization were performed using as a running buffer a phosphate buffered saline solution (1.05× PBS: 10 mM phosphate, pH 7.4, 150 mM NaCl). The screened compounds were prepared in a 20 mM stock solution in DMSO and diluted with 1.05× PBS to achieve a final 5% (v/v) DMSO concentration. The running buffer of the interaction assays consisted of 1×PBS, 5% (v/v) DMSO. The flow rate used for the screening was 60 μL/min and the ligand association and dissociation times set were 60 s and 120 s, respectively.
For data analysis the software used was the Biacore T200 Evaluation software. Different corrections were applied. First, the nonspecific binding to the chip surface and the baseline drift were corrected subtracting the signals of a reference surface (where the immobilization procedure was carried out without proteins) to the signals obtained on the TET2 surface. Second, a series of solvent standards (solvent correction) were introduced to remove the differences derived from the DMSO. Finally, the background was corrected subtracting blank injections (blank subtraction) to the injected compound signals.
(Surface plasmon resonance follows binding to a sensor surface in real time, without labels.)

A further series deals with HL60 cell line. The experiment in a line: Antiproliferative activity on HL60 cell line (CellTiter-Glo). It counts as cell-based. The following applies: Homo sapiens, HL-60; HL60, 72 h of treatment. How it is done:
The human leukaemic cell line HL60 was grown in suspension in RPMI 1640 medium containing 10% (v/v) FBS and 1% (v/v) P/S (Life Technologies). […] Leukaemia cells were suspended at a density of 2×10^5 cells/mL in complete RPMI 1640 medium and 25 μL were seeded in each well (5×10^3 final total cells/well). A 10 μM solution of the compounds of examples 1, 12 and 21, and a 25 μM solution of all other compounds were prepared in complete medium, and then serially diluted (1:2) (as specified in Table 3 below). A solution of complete medium with DMSO was used as a vehicle control.
Twenty-five microliters of each serially diluted compound solution were added to the corresponding wells of the plate (50 μL of final volume/well). After 48 h of treatment, 50 μL of fresh 2X serially diluted compound solution was added to their corresponding wells (100 μL of final volume/well). After twenty-four additional hours, an equal volume (100 μL) of CellTiter-Glo Reagent (Promega) was added to each well, plates were shaken during 2 min and incubated at rt for 10 min. Luminescence was recorded using a Spark multimode microplate reader and an integration time of 1 s per well.
(In general: In ATP-based viability assays light output follows the ATP content of the culture.)

Regarding `Cc1[nH]c2ccccc2c1-c1csc(NC(=O)Cc2csc3nccn23)n1` [Example 2, 2-(imidazo[2,1-b]thiazol-3-yl)-N-[4-(2-methyl-1H-indol-3-yl)thiazol-2-yl]acetamide], the melting point (as a rule, the temperature, or range, at which the solid turns liquid) was in the range of 160 to 163 °C. Moreover, binding at human TET2 construct was put at a Kd of 15 µM. The EC50 (as a rule, the midpoint of the concentration-response curve) in the series on HL60 cell line came out at 4.3 µM.
Regarding `Cc1[nH]c2ccccc2c1-c1csc(NC(=O)Cc2nc3ccccc3o2)n1` [Example 3, 2-(benzo[d]oxazol-2-yl)-N-[4-(2-methyl-1H-indol-3-yl)thiazol-2-yl]acetamide], the melting point is 239 to 242 °C. Besides, on human TET2 construct, the Kd – broadly, a measure of binding affinity in units of concentration – was found to be 16 µM. This compound also showed an EC50 in the series on HL60 cell line of 1.3 µM.
In turn, `Cc1[nH]c2ccccc2c1-c1coc(NC(=O)Cc2cn3ccsc3n2)n1` [Example 5, 2-(imidazo[2,1-b]thiazol-6-yl)-N-[4-(2-methyl-1H-indol-3-yl)oxazol-2-yl]acetamide] gave a melting point of 122 to 124 °C. This compound gave a Kd at human TET2 construct of 21 µM. For the same compound, in the series with HL60 cell line, the EC50 amounted to 12.1 µM.
Taken in the same sequence, the figures for `COc1ccc2[nH]cc(CC(=O)Nc3nc(-c4c(C)[nH]c5ccccc45)cs3)c2c1` [Example 6, 2-(5-methoxy-1H-indol-3-yl)-N-[4-(2-methyl-1H-indol-3-yl)thiazol-2-yl]acetamide] were 127 to 129 °C, 5 µM and 3.4 µM.
Turning to `Cc1[nH]c2ccccc2c1-c1csc(NC(=O)Cc2cc3ccccc3[nH]2)n1` [Example 7, 2-(1H-indol-2-yl)-N-[4-(2-methyl-1H-indol-3-yl)thiazol-2-yl]acetamide], the melting point lay within 166 to 168 °C. Further, at human TET2 construct, the affinity, expressed as Kd, was 5 µM. This compound also had an EC50 in the series with HL60 cell line of 9.3 µM.
For `Cc1[nH]c2ccccc2c1-c1csc(NC(=O)Cc2cn3cc(F)ccc3n2)n1` [Example 8, 2-(6-fluoroimidazo[1,2-a]pyridin-2-yl)-N-[4-(2-methyl-1H-indol-3-yl)thiazol-2-yl]acetamide], in that order: 114 to 119 °C, 10 µM and 0.072 µM.
The compound `Cc1cn2cc(CC(=O)Nc3nc(-c4c(C)[nH]c5ccccc45)cs3)nc2s1` [Example 9, N-[4-(2-methyl-1H-indol-3-yl)thiazol-2-yl]-2-(2-methylimidazo[2,1-b]thiazol-6-yl)acetamide] returned a melting point of 140 to 142 °C. In addition, on human TET2 construct, the affinity, expressed as Kd, was 9 µM.
The compound `Cc1[nH]c2ccccc2c1-c1csc(NC(=O)Cc2cn3c(C)csc3n2)n1` [Example 10, N-[4-(2-methyl-1H-indol-3-yl)thiazol-2-yl]-2-(3-methylimidazo[2,1-b]thiazol-6-yl)acetamide] came in with a melting point of 145 to 148 °C. In addition, at human TET2 construct, the Kd came out at 11 µM. The compound further returned an EC50 in the series on HL60 cell line of 3.3 µM.
For `Cc1[nH]c2ccccc2c1-c1csc(NC(=O)Cc2cn(C)c3ccccc23)n1` [Example 11, 2-(1-methyl-1H-indol-3-yl)-N-[4-(2-methyl-1H-indol-3-yl)thiazol-2-yl]acetamide], in that order: 139 to 142 °C, 2 µM and 2.2 µM.
Taken in the same sequence, the figures for `Cc1[nH]c2ccccc2c1-c1csc(NC(=O)CCc2c[nH]c3ccccc23)n1` [Example 14, 3-(1H-indol-3-yl)-N-[4-(2-methyl-1H-indol-3-yl)thiazol-2-yl]propanamide] were 133 to 135 °C, 14 µM and 13.4 µM.
In the case of `Cc1[nH]c2ccccc2c1-c1csc(N(C)C(=O)C(C)c2cn3ccsc3n2)n1` (stereo not drawn) [Example 15, 2-(imidazo[2,1-b]thiazol-6-yl)-N-methyl-N-[4-(2-methyl-1H-indol-3-yl)thiazol-2-yl]propanamide], the melting point lay within 85 to 88 °C. This compound gave a Kd at human TET2 construct of 11 µM. In the series on HL60 cell line, the response was half-maximal at 20.2 µM (EC50).
In turn, `Cc1[nH]c2ccccc2c1-c1csc(NC(=O)Cc2c[nH]c3cc(Cl)ccc23)n1` [Example 16, 2-(6-chloro-1H-indol-3-yl)-N-[4-(2-methyl-1H-indol-3-yl)thiazol-2-yl]acetamide] showed a melting point of 175 to 177 °C. Besides, at human TET2 construct, the Kd turned out to be 7 µM.
On to `Cc1[nH]c2ccccc2c1-c1csc(NC(=O)Cc2c[nH]cn2)n1` [Example 17, 2-(1H-imidazol-4-yl)-N-[4-(2-methyl-1H-indol-3-yl)thiazol-2-yl]acetamide], for which the melting point lay in the range of 107 to 112 °C. This compound yielded a Kd at human TET2 construct of 11 µM. In the series on HL60 cell line, this compound displayed an EC50 of 4.9 µM.
The compound `Cc1[nH]c2ccccc2c1-c1csc(NC(=O)Cc2sc3ccccc3c2C)n1` [Example 20, N-[4-(2-methyl-1H-indol-3-yl)thiazol-2-yl]-2-(3-methylbenzo[b]thiophen-2-yl)acetamide] displayed a melting point of 233 to 235 °C. The compound also came in with a Kd at human TET2 construct of 5 µM.
With `O=C(Cc1cn2ccsc2n1)Nc1nc(-c2c[nH]c3ccc([N+](=O)[O-])cc23)cs1` [Example 23, 2-(imidazo[2,1-b]thiazol-6-yl)-N-[4-(5-nitro-1H-indol-3-yl)thiazol-2-yl]acetamide], the melting point fell in the range of 232 to 234 °C. Further, the Kd on human TET2 construct was 15 µM.
The compound `COc1ccc2[nH]c(C)c(-c3csc(NC(=O)Cc4cn5ccsc5n4)n3)c2c1` [Example 25, 2-(imidazo[2,1-b]thiazol-6-yl)-N-[4-(5-methoxy-2-methyl-1H-indol-3-yl)thiazol-2-yl]acetamide] had a melting point of 143 to 144 °C. The Kd on human TET2 construct was found to be 13 µM.
Compound `Cc1[nH]c2cc(F)ccc2c1-c1csc(NC(=O)Cc2cn3ccsc3n2)n1` [Example 26, N-[4-(6-fluoro-2-methyl-1H-indol-3-yl)thiazol-2-yl]-2-(imidazo[2,1-b]thiazol-6-yl)acetamide] gave a melting point of 157 to 158 °C. The compound also had a Kd on human TET2 construct of 16 µM.
Turning to `Cc1[nH]c2ccc([N+](=O)[O-])cc2c1-c1csc(NC(=O)Cc2cn3ccsc3n2)n1` [Example 27, 2-(imidazo[2,1-b]thiazol-6-yl)-N-[4-(2-methyl-5-nitro-1H-indol-3-yl)thiazol-2-yl]acetamide], the melting point lay within 150 to 151 °C.
`Cc1[nH]c2ccc(N)cc2c1-c1csc(NC(=O)Cc2cn3ccsc3n2)n1` [Example 28, N-[4-(5-amino-2-methyl-1H-indol-3-yl)thiazol-2-yl]-2-(imidazo[2,1-b]thiazol-6-yl)acetamide] displayed a melting point of 125 to 126 °C. Moreover, at human TET2 construct, the Kd stood at 67 µM.
